Measured values taken from ChEMBL document CHEMBL1201862, “PubChem BioAssay data set” (2004).
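Where inhibition never reached the appropriate level, the endpoint shown equals the highest concentration tested. Otherwise, values were interpolated linearly from a five-concentration, 48-hour dose response in 96-well plates. Here, GI50 denotes the concentration required for 50% inhibition of growth.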 Activity calls are given as the source filed them. No stated cut-off is given here; in the data, active = GI50 up to about 1.1 µM and inactive = higher.

How the values were obtained:
Assay in all cases: NCI-60 cell line screen, 48 h
[1] = tested on: MOLT-4
[2] = tested on: UACC-62
[3] = tested on: HCC 2998
[4] = tested on: HCT-15
[5] = tested on: UACC-257
[6] = tested on: SNB-78
[7] = tested on: NCI-H522
[8] = tested on: HT-29
[9] = tested on: NCI-H23
[10] = tested on: SR
[11] = tested on: HOP-18
[12] = tested on: OVCAR-8
[13] = tested on: DMS-273
[14] = tested on: RXF 393
[15] = tested on: A498
[16] = tested on: HL-60
[17] = tested on: SN12C
[18] = tested on: CCRF-CEM
[19] = tested on: UO-31
[20] = tested on: SK-OV-3
[21] = tested on: Malme-3M
[22] = tested on: NCI-H226
[23] = tested on: SK-MEL-28
[24] = tested on: SNB-19
[25] = tested on: ACHN
[26] = tested on: EKVX
[27] = tested on: DLD-1
[28] = tested on: LXFL 529
[29] = tested on: 786-0
[30] = tested on: HOP-62
[31] = tested on: K562
[32] = tested on: SK-MEL-5
[33] = tested on: M19-MEL
[34] = tested on: IGROV-1
[35] = tested on: HOP-92
[36] = tested on: SF-268
[37] = tested on: KM-20L2
[38] = tested on: COLO 205
[39] = tested on: SW-620
[40] = tested on: HCT-116
[41] = tested on: SF-295
[42] = tested on: M14
[43] = tested on: DMS-114
[44] = tested on: OVCAR-4
[45] = tested on: RPMI-8226
[46] = tested on: U-251
[47] = tested on: SF-539
[48] = tested on: A549
[49] = tested on: SNB-75
[50] = tested on: OVCAR-5
[51] = tested on: CAKI-1
[52] = tested on: NCI-H460
[53] = tested on: LOX IMVI
[54] = tested on: OVCAR-3
[55] = tested on: TK-10
[56] = tested on: SK-MEL-2

With `C=CCOC(C)n1c(C)cc(=O)n(C(C)OCC=C)c1=O` (stereo not given) the GI50 [1] was > 100 µM (inactive), the GI50 [2] was > 100 µM (inactive) and the GI50 [3] was > 100 µM (inactive). The GI50 [4] was > 100 µM, the GI50 [5] was > 100 µM (inactive) and the GI50 [6] was > 100 µM (inactive). For the same compound, the GI50 [7] was > 100 µM (inactive), the GI50 [8] was > 100 µM (inactive) and the GI50 [9] was > 100 µM (inactive). The GI50 [10] was > 100 µM (inactive), the GI50 [11] was > 100 µM (inactive) and the GI50 [12] was > 100 µM (inactive). The GI50 [13] was > 100 µM (inactive), the GI50 [14] was > 100 µM (inactive) and the GI50 [15] was > 100 µM (inactive). The GI50 [16] was > 100 µM (inactive), the GI50 [17] was > 100 µM (inactive) and the GI50 [18] was > 100 µM (inactive). For the same compound, the GI50 [19] was > 100 µM (inactive), the GI50 [20] was > 100 µM (inactive) and the GI50 [21] was > 100 µM (inactive). The GI50 [22] was > 100 µM (inactive), the GI50 [23] was > 100 µM (inactive) and the GI50 [24] was > 100 µM (inactive). The GI50 [25] was > 100 µM (inactive), the GI50 [26] was > 100 µM (inactive) and the GI50 [27] was > 100 µM (inactive). For the same compound, the GI50 [28] was > 100 µM (inactive), the GI50 [29] was > 100 µM (inactive) and the GI50 [30] was > 100 µM (inactive). The GI50 [31] was > 100 µM (inactive), the GI50 [32] was > 100 µM (inactive) and the GI50 [33] was > 100 µM (inactive). For the same compound, the GI50 [34] was > 100 µM (inactive), the GI50 [35] was 72.1 µM (inactive) and the GI50 [36] was > 100 µM (inactive). The GI50 [37] was > 100 µM (inactive), the GI50 [38] was > 100 µM (inactive) and the GI50 [39] was > 100 µM (inactive). For the same compound, the GI50 [40] was > 100 µM (inactive), the GI50 [41] was > 100 µM (inactive) and the GI50 [42] was > 100 µM (inactive). The GI50 [43] was > 100 µM (inactive), the GI50 [44] was > 100 µM (inactive) and the GI50 [45] was > 100 µM (inactive). The GI50 [46] was > 100 µM (inactive), the GI50 [47] was > 100 µM (inactive) and the GI50 [48] was > 100 µM (inactive). The GI50 [49] was > 100 µM (inactive).
For `O=C(O)C12C=CC(C1)c1ccccc12` (stereo not given), the GI50 [1] was > 100 µM (inactive), the GI50 [2] was > 100 µM (inactive) and the GI50 [3] was > 100 µM (inactive). For the same compound, the GI50 [50] was > 100 µM (inactive), the GI50 [4] was > 100 µM and the GI50 [5] was > 100 µM (inactive). For the same compound, the GI50 [8] was > 100 µM (inactive), the GI50 [9] was > 100 µM (inactive) and the GI50 [10] was > 100 µM (inactive). The GI50 [11] was > 100 µM (inactive), the GI50 [12] was > 100 µM (inactive) and the GI50 [51] was > 100 µM (inactive). The GI50 [13] was > 100 µM (inactive), the GI50 [15] was > 100 µM (inactive) and the GI50 [16] was > 100 µM (inactive). The GI50 [17] was > 100 µM (inactive), the GI50 [18] was > 100 µM (inactive) and the GI50 [19] was > 100 µM (inactive). The GI50 [20] was > 100 µM (inactive), the GI50 [21] was > 100 µM (inactive) and the GI50 [22] was > 100 µM (inactive). The GI50 [23] was > 100 µM (inactive), the GI50 [24] was > 100 µM (inactive) and the GI50 [25] was > 100 µM (inactive). The GI50 [27] was > 100 µM (inactive), the GI50 [28] was > 100 µM (inactive) and the GI50 [29] was > 100 µM (inactive). The GI50 [30] was > 100 µM (inactive), the GI50 [31] was > 100 µM (inactive) and the GI50 [32] was > 100 µM (inactive). For the same compound, the GI50 [33] was > 100 µM (inactive), the GI50 [52] was > 100 µM (inactive) and the GI50 [34] was > 100 µM (inactive). The GI50 [35] was > 100 µM (inactive), the GI50 [36] was > 100 µM (inactive) and the GI50 [37] was > 100 µM (inactive). The GI50 [53] was > 100 µM (inactive), the GI50 [38] was > 100 µM (inactive) and the GI50 [39] was > 100 µM (inactive). The GI50 [40] was > 100 µM (inactive), the GI50 [41] was > 100 µM (inactive) and the GI50 [42] was > 100 µM (inactive). The GI50 [43] was > 100 µM (inactive), the GI50 [44] was > 100 µM (inactive) and the GI50 [45] was > 100 µM (inactive). The GI50 [46] was > 100 µM (inactive), the GI50 [48] was > 100 µM (inactive) and the GI50 [54] was > 100 µM (inactive). For the same compound, the GI50 [55] was > 100 µM (inactive).
For `COc1ccc2c(c[n+](C)c3c4cc5c(cc4ccc23)OCO5)c1OC` [CHELERYTHRINE CHLORIDE], the GI50 [6] was 2 µM (inactive), the GI50 [7] was 2.14 µM (inactive) and the GI50 [10] was 1.28 µM (inactive). The GI50 [11] was 1.8 µM (inactive), the GI50 [56] was 2.04 µM (inactive) and the GI50 [51] was 1.91 µM (inactive). The GI50 [13] was 2.04 µM (inactive), the GI50 [27] was 1.7 µM (inactive) and the GI50 [28] was 1.73 µM (inactive). For the same compound, the GI50 [33] was 1.6 µM (inactive), the GI50 [37] was 1.74 µM (inactive) and the GI50 [43] was 2.18 µM (inactive).
